Experimental data as given in patent US20240368125A1, “NOVEL PYRAZINYL-TRIAZOLE COMPOUNDS AS PESTICIDES” (Bayer Aktiengesellschaft, priority 2021, published 2024).

How the values were obtained:
Assay type in all cases: in vivo
[1] = test system: Rhipicephalus (Boophilus) microplus larvae (strain Parkhurst, resistant against synthetic pyrethroids); test: Rhipicephalus (Boophilus) microplus in-vitro contact test, larval cattle tick; conditions: Rhipicephalus microplus; 1 μg/cm^2 (=100 g/ha), after 48 hours; read-out: efficacy (larvae dead or moribund)
Summary of the method: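 Compound in acetone coated on glass tube inner walls; 900 ppm solution gives 5 μg/cm^2. Pyrethroid-resistant Parkhurst larvae (20-50 per tube) held at 27° C., 85% relative humidity; efficacy assessed after 48 h by scoring negative geotactic behavior after tapping larvae to tube bottom.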

[2] = test system: adult engorged female ticks (Rhipicephalus microplus); test: Rhipicephalus (Boophilus) microplus injection test; conditions: 4 μg/tick, after 7 days
Protocol: Rhipicephalus (Boophilus) Microplus—Injection Test
(§1) Solvent: Dimethyl Sulfoxide
To produce a suitable preparation of active compound, 10 mg of active compound are dissolved in 0.5 mL solvent, and the concentrate is diluted with solvent to the desired concentration.
Five adult engorged female ticks (Rhipicephalus microplus) are injected with 1 μL compound solution into the abdomen. The ticks are transferred into replica plates and incubated in a climate chamber.
After 7 days egg deposition of fertile eggs is monitored. Eggs where fertility is not visible are stored in a climate chamber till hatching after about 42 days. An efficacy of 100% means all eggs are infertile; 0% means all eggs are fertile.

[3] = test system: adult cat fleas (Ctenocephalides felis); test: Ctenocephalides felis in-vitro contact test, adult cat flea; conditions: Ctenocephalides felis; 1 μg/cm^2 (=100 g/ha), after 48 hours; read-out: efficacy (fleas dead or moribund)
[4] = test system: adult unfed cat fleas (Ctenocephalides felis); test: Ctenocephalides felis oral test; conditions: 48 h, 100 ppm in citrated cattle blood, after 2 days
Protocol: Ctenocephalides felis—Oral Test
as §1
To produce a suitable preparation of active compound, 10 mg of active compound are dissolved in 0.5 mL solvent, and the concentrate is diluted with citrated cattle blood to the desired concentration.
Approximately 20 adult unfed cat fleas (Ctenocephalides felis) are placed in a flea chamber whose top and bottom is covered with gauze. A chamber whose bottom is sealed with parafilm, is filled with the blood-compound solution and placed on top of the flea chamber, so that the fleas can suck the blood. The blood chamber is heated to 37° C. whereas the flea chamber is kept at room temperature.
After 2 days mortality in % is determined. 100% means all the fleas have been killed; 0% means none of the fleas have been killed.

[5] = test system: adult brown dog ticks (Rhipicephalus sanguineus); test: Rhipicephalus sanguineus in-vitro contact test, adult brown dog ticks; conditions: Rhipicephalus sanguineus; 1 μg/cm^2 (=100 g/ha), after 48 hours; read-out: efficacy (ticks dead or moribund)
Summary of the method: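 Acetone solution rolled onto tube walls, 2 h at 30 rpm; 900 ppm → 5 μg/cm^2. Solvent evaporated, 5-10 adults/tube, perforated lid, lying, RT. 48 h: heat plate 45-50° C ≤5 min; immotile/uncoordinated = dead/moribund. 100% = all dead/moribund.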

[6] = test system: larvae of the banded cucumber beetle (Diabrotica balteata); test: Diabrotica balteata spray test; conditions: Diabrotica balteata, 168 h; 100 g/ha (=32 μg/well), wheat seeds, after 7 days; read-out: efficacy (seedlings grown)
Summary of the method: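 Germinated wheat seedlings (5 per well, on agar) sprayed with compound in acetone/DMF with emulsifier-containing water, then infested with 10–20 Diabrotica balteata larvae. Efficacy (%) scored after 7 days from seedling growth: 100% = growth as untreated uninfested control, 0% = no seedlings grown.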

[7] = test system: green peach aphid (Myzus persicae); test: Myzus persicae spray test (MYZUPE); conditions: in Brassica rapa, foliar, 120 h
Protocol: Myzus persicae—Spray Test
Solvent: 78.0 parts by weight acetone • 1.5 parts by weight dimethylformamide
(§2) Emulsifier: alkylarylpolyglycol ether
(§3) To produce a suitable preparation of active compound, 1 part by weight of active compound is mixed with the stated amount of solvents and is diluted with water, containing an emulsifier concentration of 1000 ppm, to the desired concentration. Further test concentrations are prepared by dilution with emulsifier containing water.
Chinese cabbage (Brassica pekinensis) leaf disks infected with all instars of the green peach aphid (Myzus persicae), are sprayed with a preparation of the active ingredient of the desired concentration.
(§4) After 5 days mortality in % is determined. 100% means all aphids have been killed and 0% means none of the aphids have been killed.
Myzus persicae—Spray Test (MYZUPE
After the specified period of time, mortality in % is determined. 100% means all aphids have been killed and 0% means none of the aphids have been killed.

[8] = test system: green peach aphid (Myzus persicae); test: Myzus persicae oral test; conditions: 120 h
Protocol: Solvent: 100 parts by weight acetone
To produce a suitable preparation of active compound, 1 part by weight of active compound is mixed with the stated amount of solvent, and the concentrate is diluted with water to the desired concentration.
50 μL compound solution is filled in microtiter plates and 150 μL IPL41 insect medium (33%+15% sugar) is added to obtain a total volume of 200 μL per well. Afterwards the plates are sealed with parafilm through which a mixed population of the green peach aphid (Myzus persicae) can suck on the compound preparation.
as §4

[9] = test system: larvae of the southern green stink bug (Nezara viridula); test: Nezara viridula spray test; conditions: Nezara viridula, in Hordeum vulgare, 96 h
Protocol: Nezara viridula—Spray Test
(§5) Solvent: 78.0 parts by weight of acetone • • 1.5 parts by weight of dimethylformamide
as §2
as §3, with “solvent,” for “solvents”, “and the concentrate” for “and”
Barley plants (Hordeum vulgare) are sprayed with a test solution containing the desired concentration of the active ingredient and are infested with larvae of the southern green stink bug (Nezara viridula).
After 4 days mortality in % is determined. 100% means all the stink bugs have been killed; 0% means none of the stink bugs have been killed.

[10] = test system: brown planthopper (Nilaparvata lugens); test: Nilaparvata lugens spray test; conditions: Nilaparvata lugens, in Oryza sativa, 96 h
Protocol: Nilaparvata lugens—Spray Test
as §5, §2, §3
Rice plants (Oryza sativa) are sprayed with a preparation of the active ingredient of the desired concentration and the plants are infested with the brown planthopper (Nilaparvata lugens).
After 4 days mortality in % is determined. 100% means all planthoppers have been killed and 0% means none of the planthoppers have been killed.

[11] = test system: fall armyworm larvae (Spodoptera frugiperda); test: Spodoptera frugiperda spray test (SPODFR); conditions: in Zea mays, 168 h
Summary of the method: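 Compound in acetone/dimethylformamide, diluted with water containing 1000 ppm alkylarylpolyglycol ether emulsifier. Maize leaf sections sprayed, dried, then infested with fall armyworm larvae. Mortality (%) scored after 7 days, 100% meaning all caterpillars killed.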

SMILES	pest or weed control at 1 µg/cm2 [1] [%]	efficacy (infertile eggs) [2] [%]	pest or weed control at 1 µg/cm2 [3] [%]	mortality at 100 ppm [4] [%]	pest or weed control at 1 µg/cm2, 100 g/ha [5] [%]	pest or weed control at 32 µg/disc, 100 g/ha [6] [%]	mortality at 100 g/ha [7] [%]	mortality at 20 ppm [8] [%]	mortality at 500 g/ha [9] [%]	mortality at 500 g/ha [10] [%]	mortality at 100 g/ha [11] [%]
C[C@H](NC(=O)c1cc(OC(F)(F)F)cc(S(C)(=O)=O)c1)c1ncnn1-c1cnc(C(=O)N(C)C2CC2)cn1 [Example I-004]	100	100	100	100	100	100	90	100	70	100	100
CCN(C)C(=O)c1cnc(-n2ncnc2[C@H](C)NC(=O)c2cc(OC(F)(F)F)cc(S(C)(=O)=O)c2)cn1 [Example I-018]	90	–	100	–	100	100	100	100	100	100	100
C[C@H](NC(=O)c1cc(C(F)(F)F)cc(S(C)(=O)=O)c1)c1ncnn1-c1cnc(C(N)=O)cn1 [Example I-030]	–	–	–	–	–	100	–	100	90	–	–
